Assay results as given in patent publication US10106556B2, “Heterocyclic compound” (TAKEDA PHARMACEUTICAL COMPANY LIMITED, priority 2015, dated 2018).

Target: T1, His-hMAGL (recombinant polyhistidine tagged human MAGL protein) (Homo sapiens, UniProt Q99685)
T1 construct: made in house; host or cells: E. coli BL21(DE3)
T1 sequence (Q99685 1-303): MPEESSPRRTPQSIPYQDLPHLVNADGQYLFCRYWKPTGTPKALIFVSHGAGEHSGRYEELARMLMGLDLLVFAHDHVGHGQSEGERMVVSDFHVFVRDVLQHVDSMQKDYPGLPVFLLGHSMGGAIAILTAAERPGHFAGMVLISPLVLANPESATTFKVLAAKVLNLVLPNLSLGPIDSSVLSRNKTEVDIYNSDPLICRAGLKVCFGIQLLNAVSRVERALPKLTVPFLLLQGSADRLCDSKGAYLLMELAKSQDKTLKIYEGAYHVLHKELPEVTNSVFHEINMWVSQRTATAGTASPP
Assay: Measurement of MAGL inhibitory activity (arachidonic acid production from 2-arachidonylglycerol, RapidFire-mass spectrometry)
Assay type: biochemical
Settings: MAGL inhibitory rate at 10 μM test compound, 60 min preincubation with His-hMAGL, 2-arachidonylglycerol substrate, 10 min reaction at room temperature
In short: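 Recombinant His-tagged human MAGL converted 2-arachidonylglycerol to arachidonic acid. Reactions received acetonitrile with 3 μM arachidonic acid-d8 as internal standard, and product was quantified by RapidFire SPE (C4) with negative-mode SRM mass spectrometry. Percent inhibition was calculated against compound-free and enzyme-free controls.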

| inhibition at 10 µM | % inhibition (10 μM) | SMILES |
| --- | --- | --- |
| 101% |  | Cc1nn(C)cc1-c1ccc(OCC2CN(C(=O)c3cc4c(cc3F)OCC(=O)N4)C2)c(F)c1 [Example 249, 6-((3-((4-(1,3-dimethyl-1H-pyrazol-4-yl)-2-fluorophenoxy)methyl)azetidin-1-yl)carbonyl)-7-fluoro-2H-1,4-benzoxazin-3(4H)-one] |
| 101% |  | O=C1COc2cc(F)c(C(=O)N3CC(COc4ccc(Cl)cc4C4=CCOCC4)C3)cc2N1 [Example 211, 6-((3-((4-chloro-2-(3,6-dihydro-2H-pyran-4-yl)phenoxy)methyl)azetidin-1-yl)carbonyl)-7-fluoro-2H-1,4-benzoxazin-3(4H)-one] |
| 99% |  | Cc1nn(C)cc1-c1cc(Cl)ccc1OCC1CN(C(=O)c2cc3c(cc2F)OCC(=O)N3)C1 [Example 265, 6-((3-((4-chloro-2-(1,3-dimethyl-1H-pyrazol-4-yl)phenoxy)methyl)azetidin-1-yl)carbonyl)-7-fluoro-2H-1,4-benzoxazin-3(4H)-one] |
| 103% |  | O=C1COc2cc(F)c(C(=O)N3CC(COc4ccc(C(F)(F)F)cc4Cl)C3)cc2N1 [Example 116, 6-((3-((2-chloro-4-(trifluoromethyl)phenoxy)methyl)azetidin-1-yl)carbonyl)-7-fluoro-2H-1,4-benzoxazin-3(4H)-one] |
| 101% |  | O=C1COc2cc(F)c(C(=O)N3CC(COc4ccccc4Cl)C3)cc2N1 [Example 113, 6-((3-((2-chlorophenoxy)methyl)azetidin-1-yl)carbonyl)-7-fluoro-2H-1,4-benzoxazin-3(4H)-one] |
| 96% |  | O=C1COc2cc(F)c(C(=O)N3CCC(COc4ccc5c(c4)CCCC5)CC3)cc2N1 [Example 284, 7-fluoro-6-((4-((5,6,7,8-tetrahydronaphthalen-2-yloxy)methyl)piperidin-1-yl)carbonyl)-2H-1,4-benzoxazin-3(4H)-one] |
| 101% |  | O=C1COc2cc(F)c(C(=O)N3CC(COc4ccc(F)c(Cl)c4)C3)cc2N1 [Example 131, 6-((3-((3-chloro-4-fluorophenoxy)methyl)azetidin-1-yl)carbonyl)-7-fluoro-2H-1,4-benzoxazin-3(4H)-one] |
| 102% |  | O=C1COc2cc(F)c(C(=O)N3CC(OCc4ccc(Cl)cc4)C3)cc2N1 [Example 343, 6-((3-((4-chlorobenzyl)oxy)azetidin-1-yl)carbonyl)-7-fluoro-2H-1,4-benzoxazin-3(4H)-one] |
| 100% |  | COc1ccc(COC2CN(C(=O)c3cc4c(cc3F)OCC(=O)N4)C2)cc1F [Example 348, 7-fluoro-6-((3-((3-fluoro-4-methoxybenzyl)oxy)azetidin-1-yl)carbonyl)-2H-1,4-benzoxazin-3(4H)-one] |
| 100% |  | O=C1COc2cc(F)c(C(=O)N3CC(COc4ccc(N5CC(F)C5)cc4F)C3)cc2N1 [Example 292, 7-fluoro-6-((3-((2-fluoro-4-(3-fluoroazetidin-1-yl)phenoxy)methyl)azetidin-1-yl)carbonyl)-2H-1,4-benzoxazin-3(4H)-one] |
| 101% |  | O=C1COc2cc(F)c(C(=O)N3CC(COc4ccccc4C4CC4)C3)cc2N1 [Example 168, 6-((3-((2-cyclopropylphenoxy)methyl)azetidin-1-yl)carbonyl)-7-fluoro-2H-1,4-benzoxazin-3(4H)-one] |
| 104% |  | CC(C)(Oc1ccc(F)cc1F)C1CN(C(=O)c2cc3c(cc2F)OCC(=O)N3)C1 [Example 308, 6-((3-(2-(2,4-difluorophenoxy)propan-2-yl)azetidin-1-yl)carbonyl)-7-fluoro-2H-1,4-benzoxazin-3 (4H)-one] |
|  | 98% | CC(Oc1cc(F)cc(F)c1)C1CN(C(=O)c2cc3c(cc2F)OCC(=O)N3)C1 (centres unmarked) [Example 314, 6-((3-(1-(3,5-difluorophenoxy)ethyl)azetidin-1-yl)carbonyl)-7-fluoro-2H-1,4-benzoxazin-3(4H)-one] |
| 103% |  | O=C1COc2ccc(C(=O)N3CCC(COc4ccc(Cl)nc4Cl)CC3)cc2N1 [Example 41, 6-((4-(((2,6-dichloropyridin-3-yl)oxy)methyl)piperidin-1-yl)carbonyl)-2H-1,4-benzoxazin-3(4H)-one] |
| 96% |  | O=C1COc2ccc(C(=O)N3CCC(COc4ccccc4C4CC4)CC3)cc2N1 [Example 65, 6-((4-((2-cyclopropylphenoxy)methyl)piperidin-1-yl)carbonyl)-2H-1,4-benzoxazin-3(4H)-one] |
|  | 101% | CC(Oc1ccc(F)cc1Cl)C1CCN(C(=O)c2cc3c(cc2F)OCC(=O)N3)CC1 (centres unmarked) [Example 295, 6-((4-(1-(2-chloro-4-fluorophenoxy)ethyl)piperidin-1-yl)carbonyl)-7-fluoro-2H-1,4-benzoxazin-3(4H)-one] |

| inhibition at 10 µM | % inhibition (10 μM) | SMILES |
| --- | --- | --- |
| 101% |  | O=C1COc2cc(F)c(C(=O)N3CC(COc4ccc(Cl)cc4-c4ccncc4Cl)C3)cc2N1 [Example 210, 6-((3-((4-chloro-2-(3-chloropyridin-4-yl)phenoxy)methyl)azetidin-1-yl)carbonyl)-7-fluoro-2H-1,4-benzoxazin-3(4H)-one] |
| 99% |  | O=C1COc2cc(F)c(C(=O)N3CC(COc4ccc(-c5ccc6c(c5)CCO6)cc4F)C3)cc2N1 [Example 257, 6-((3-((4-(2,3-dihydro-1-benzofuran-5-yl)-2-fluorophenoxy)methyl)azetidin-1-yl)carbonyl)-7-fluoro-2H-1,4-benzoxazin-3(4H)-one] |
| 94% |  | O=C1COc2cc(F)c(C(=O)N3CC(COc4ccc(Cl)cc4-c4ccc(Cl)cn4)C3)cc2N1 [Example 196, 6-((3-((4-chloro-2-(5-chloropyridin-2-yl)phenoxy)methyl)azetidin-1-yl)carbonyl)-7-fluoro-2H-1,4-benzoxazin-3(4H)-one] |
| 89% |  | N#Cc1cccc(OCC2CCN(C(=O)c3ccc4c(c3)NC(=O)CO4)CC2)c1 [Example 48, 3-((1-((3-oxo-3,4-dihydro-2H-1,4-benzoxazin-6-yl)carbonyl)piperidin-4-yl)methoxy)benzonitrile] |
| 99% |  | O=C1COc2cc(F)c(C(=O)N3CCC(COc4ccc(F)cc4Br)CC3)cc2N1 [Example 99, 6-((4-((2-bromo-4-fluorophenoxy)methyl)piperidin-1-yl)carbonyl)-7-fluoro-2H-1,4-benzoxazin-3(4H)-one] |
| 92% |  | CS(=O)(=O)c1ccc(COC2CN(C(=O)c3cc4c(cc3F)OCC(=O)N4)C2)cc1 [Example 337, 7-fluoro-6-((3-((4-(methylsulfonyl)benzyl)oxy)azetidin-1-yl)carbonyl)-2H-1,4-benzoxazin-3(4H)-one] |
| 100% |  | CC(C)(C)c1ccccc1OCC1CN(C(=O)c2cc3c(cc2F)OCC(=O)N3)C1 [Example 167, 6-((3-((2-tert-butylphenoxy)methyl)azetidin-1-yl)carbonyl)-7-fluoro-2H-1,4-benzoxazin-3(4H)-one] |
| 101% |  | O=C1COc2cc(F)c(C(=O)N3CC(COc4cccc(Cl)c4F)C3)cc2N1 [Example 135, 6-((3-((3-chloro-2-fluorophenoxy)methyl)azetidin-1-yl)carbonyl)-7-fluoro-2H-1,4-benzoxazin-3(4H)-one] |
| 98% |  | N#Cc1ccccc1OCC1CCN(C(=O)c2ccc3c(c2)NC(=O)CO3)CC1 [Example 30, 2-((1-((3-oxo-3,4-dihydro-2H-1,4-benzoxazin-6-yl)carbonyl)piperidin-4-yl)methoxy)benzonitriie] |
| 94% |  | Cc1cc(OCC2CN(C(=O)c3cc4c(cc3F)OCC(=O)N4)C2)n(-c2ccccn2)n1 [Example 178, 7-fluoro-6-((3-(((3-methyl-1-(pyridin-2-yl)-1H-pyrazol-5-yl)oxy)methyl)azetidin-1-yl)carbonyl)-2H-1,4-benzoxazin-3(4H)-one] |
| 98% |  | O=C1COc2cc(F)c(C(=O)N3CC(COc4ccc(Br)cc4)C3)cc2N1 [Example 182, 6-((3-((4-bromophenoxy)methyl)azetidin-1-yl)carbonyl)-7-fluoro-2H-1,4-benzoxazin-3(4H)-one] |
| 98% |  | Cc1ccccc1OCC1CCN(C(=O)c2ccc3c(c2)NC(=O)CO3)CC1 [Example 34, 6-((4-((2-methylphenoxy)methyl)piperidin-1-yl)carbonyl)-2H-1,4-benzoxazin-3(4H)-one] |
| 98% |  | O=C1COc2ccc(C(=O)N3CCC(COc4cc(Cl)ncc4Cl)CC3)cc2N1 [Example 47, 6-((4-(((2,5-dichloropyridin-4-yl)oxy)methyl)piperidin-1-yl)carbonyl)-2H-1,4-benzoxazin-3(4H)-one] |
| 100% |  | CCc1ncccc1-c1ccc(OCC2CN(C(=O)c3cc4c(cc3F)OCC(=O)N4)C2)c(F)c1 [Example 233, 6-((3-((4-(2-ethylpyridin-3-yl)-2-fluorophenoxy)methyl)azetidin-1-yl)carbonyl)-7-fluoro-2H-1,4-benzoxazin-3(4H)-one] |
| 103% |  | O=C1COc2cc(F)c(C(=O)N3CC(COc4ccccc4-c4ccccc4)C3)cc2N1 [Example 109, 6-((3-((biphenyl-2-yloxy)methyl)azetidin-1-yl)carbonyl)-7-fluoro-2H-1,4-benzoxazin-3(4H)-one] |
| 101% |  | O=C1COc2cc(F)c(C(=O)N3CC(COc4ccc(C(F)F)cc4F)C3)cc2N1 [Example 288, 6-((3-((4-(difluoromethyl)-2-fluorophenoxy)methyl)azetidin-1-yl)carbonyl)-7-fluoro-2H-1,4-benzoxazin-3(4H)-one] |
